In article PMC9820082, “Synthesis of 9-Hydroxy-1H-Benzo[f]chromene Derivatives with Effective Cytotoxic Activity on MCF7/ADR, P-Glycoprotein Inhibitors, Cell Cycle Arrest and Apoptosis Effects” (International Journal of Molecular Sciences, 2022):

Tested on: MCF-7/ADR cells
Assay: Annexin V/PI double staining flow cytometric apoptosis test
Format: cell-based, human
Conditions: IC50 value, 24 h
Excerpt: One of the optional mechanisms regarding the lethal action of chemotherapeutic medicines is blocking cell cycle progression, triggering apoptosis with otherwise mutual effect. […] The pivotal relation of the newly synthesized MCF-7/ADR “anticancer drugs” was further evaluated using the Annexin V/PI double staining flow cytometric test. […] In comparison to Doxorubicin’s 30% total apoptosis rate, which was nearly identical to 4a, 4c and 4g, compounds 4d, 4e and 4i were leading with percentages of 41%, 31% and 38%, respectively. Only compounds 4a (8.5%) and 4g (11%) had greater effects on necrosis compared to doxorubicin (5%). Other examined substances caused both early and late apoptosis in all treated cells (Figure 7b). Therefore, MCF-7/ADR cytotoxicity is induced by apoptotic processes, apparently without negative effects on P-gp.
(a) The dot plot of the Annexin V/PI-stained cells, treated with the indicated drugs. […] The data are expressed as the mean ± SD of three independent experiments in triplicate. Significances are shown in comparison to control cells (* p < 0.001). TEXT PRINTED IN THE PICTURE: (a) DOX.: 3.33%; 18.41%; 7.85% | (a) 4a: 8.66%; 18.17%; 4.24% | (a) 4c: 2.74%; 12.73%; 9.11% | (a) 4d: 4.85%; 27.44%; 8.73% | (a) 4e: 5.77%; 9.92%; 15.92% | (a) 4g: 11.04%; 3.94%; 7.38% | (a) 4i: 5.54%; 12.87%; 19.61% DOUBTS OF THE COPYIST ABOUT THIS PICTURE: The quadrant percentages in panel (a) are printed very small and blurred, so 3, 5, 6, 8 and 9 cannot be told apart with certainty. […] They are told apart only by their quadrant in the PI / Annexin V-FITC plot, and are listed upper left, upper right, lower right. / The sample line in each plot reads MCF7/ADR. In the 4g plot it is cut off as 'MCF7/AI'. / The panel 'Cont.' (untreated control: 1.56%, 0.15%, 0.48%) is left out because it is not a substance.

| Compound | total apoptosis rate [%] | necrosis [%] |
| --- | --- | --- |
| N#CC1=C(N)Oc2ccc3ccc(O)cc3c2C1c1cc(Cl)ccc1Cl (centres unmarked) [4e, 3-Amino-1-(2,5-Dichlorophenyl)-9-Hydroxy-1H-Benzo[f]chromene-2-Carbonitrile] | 31 |  |
| N#CC1=C(N)Oc2ccc3ccc(O)cc3c2C1c1ccc(F)cc1F (centres unmarked) [4a, 3-Amino-1-(2,4-Difluorophenyl)-9-Hydroxy-1H-Benzo[f]chromene-2-Carbonitrile] |  | 8.5 |
| N#CC1=C(N)Oc2ccc3ccc(O)cc3c2C1c1ccc(Cl)cc1Cl (centres unmarked) [4d, 3-Amino-1-(2,4-Dichlorophenyl)-9-Hydroxy-1H-Benzo[f]chromene-2-Carbonitrile] | 41 |  |
| N#CC1=C(N)Oc2ccc3ccc(O)cc3c2C1c1cc(Br)cc(Br)c1 (centres unmarked) [4i, 3-Amino-1-(3,5-Dibromophenyl)-9-Hydroxy-1H-Benzo[f]chromene-2-Carbonitrile] | 38 |  |
| N#CC1=C(N)Oc2ccc3ccc(O)cc3c2C1c1ccc(Cl)c(Cl)c1 (centres unmarked) [4g, 3-Amino-1-(3,4-Dichlorophenyl)-9-Hydroxy-1H-Benzo[f]chromene-2-Carbonitrile] |  | 11 |
